How the values were obtained:
[1] = Therapeutic index, ratio of LC50 for human Panel NCI-60 (60 carcinoma cell lines) to GI50 for human Panel NCI-60 (60 carcinoma cell lines); format: functional
BV-2 = test: Cytotoxicity against mouse BV2 cells incubated for 48 hrs by MTT assay; format: cell-based; settings: BV-2, 48 h

Row | Compound | TI [1] | IC50 (BV-2)
1 | COc1cccc2c1C(=O)c1c(O)c3c(c(O)c1C2=O)C[C@@](O)(C(=O)CO)C[C@@H]3O[C@H]1C[C@H](N)[C@H](O)[C@H](C)O1 [DOXORUBICIN] | 134 | 
2 | O=c1[nH]cc(F)c(=O)[nH]1 [FLUOROURACIL] | >133 | 
3 | O=C1COCCN1c1ccc(N2C(=O)C(Cl)C2c2cn(Cc3ccc(F)cc3)c3ccccc23)cc1 (stereo not drawn) |  | > 10 µM
